Laboratory results as given in patent US20260021103A1, “IKZF2 AND CK1-ALPHA DEGRADING COMPOUNDS AND USES THEREOF” (President and Fellows of Harvard College, priority 2022, published 2026).

Assays:
Assay type in all cases: cell-based
Conditions in all cases: 24 h, HEK293T GFP reporter
IKZF2 = biological target: T1, IKZF2 (Homo sapiens, UniProt Q96SW2+Q9UKS7); assay: Flow cytometry for measuring degradation, HEK293T GFP-POI reporter cells (IKZF2)
T1 construct: expressed in transfected cells; host or cells: HEK293T (lentiviral transduction, puromycin selection, FACS sorting)

CK1α = biological target: T2, CK1α (Homo sapiens, UniProt P48729+Q96SW2); assay: Flow cytometry for measuring degradation, HEK293T GFP-POI reporter cells (CK1α)
T2 construct: expressed in transfected cells; host or cells: HEK293T (lentiviral transduction, puromycin selection, FACS sorting)

IKZF1 = biological target: T3, IKZF1 (Homo sapiens, UniProt Q13422+Q96SW2); assay: Flow cytometry for measuring degradation, HEK293T GFP-POI reporter cells (IKZF1)
T3 construct: expressed in transfected cells; host or cells: HEK293T (lentiviral transduction, puromycin selection, FACS sorting)

GSPT1 = GSPT1 (Homo sapiens, UniProt P15170+Q96SW2); assay: Flow cytometry for measuring degradation, HEK293T GFP-POI reporter cells (GSPT1); design: expressed in transfected cells; host or cells: HEK293T
Chain of GSPT1 (P15170 whole entry): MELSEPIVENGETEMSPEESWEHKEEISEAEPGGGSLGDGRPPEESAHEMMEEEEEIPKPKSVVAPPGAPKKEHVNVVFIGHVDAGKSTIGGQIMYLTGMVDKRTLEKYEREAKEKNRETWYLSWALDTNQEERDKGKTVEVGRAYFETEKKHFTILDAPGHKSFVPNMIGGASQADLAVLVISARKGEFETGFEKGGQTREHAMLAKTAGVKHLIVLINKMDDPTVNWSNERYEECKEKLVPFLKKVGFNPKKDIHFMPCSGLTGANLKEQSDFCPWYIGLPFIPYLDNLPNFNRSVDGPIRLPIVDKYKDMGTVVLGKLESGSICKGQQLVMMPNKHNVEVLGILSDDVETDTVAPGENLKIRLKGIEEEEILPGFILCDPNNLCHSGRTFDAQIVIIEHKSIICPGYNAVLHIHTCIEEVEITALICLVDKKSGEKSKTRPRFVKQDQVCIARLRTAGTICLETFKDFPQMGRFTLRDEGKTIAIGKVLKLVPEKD
Chain of GSPT1 (Q96SW2 whole entry): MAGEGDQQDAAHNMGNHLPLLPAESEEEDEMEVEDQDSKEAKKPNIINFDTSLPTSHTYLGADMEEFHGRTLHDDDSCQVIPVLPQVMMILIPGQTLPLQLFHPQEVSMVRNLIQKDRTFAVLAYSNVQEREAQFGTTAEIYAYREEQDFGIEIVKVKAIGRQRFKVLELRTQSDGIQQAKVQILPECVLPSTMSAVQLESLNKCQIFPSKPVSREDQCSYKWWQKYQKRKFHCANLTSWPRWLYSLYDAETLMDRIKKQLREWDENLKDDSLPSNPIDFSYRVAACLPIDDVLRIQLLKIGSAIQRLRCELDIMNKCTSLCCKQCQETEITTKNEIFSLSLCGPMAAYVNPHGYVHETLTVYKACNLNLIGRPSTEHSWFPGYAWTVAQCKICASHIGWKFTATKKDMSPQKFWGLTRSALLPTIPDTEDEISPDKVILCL
Chain of GSPT1 (Q16531 whole entry partner): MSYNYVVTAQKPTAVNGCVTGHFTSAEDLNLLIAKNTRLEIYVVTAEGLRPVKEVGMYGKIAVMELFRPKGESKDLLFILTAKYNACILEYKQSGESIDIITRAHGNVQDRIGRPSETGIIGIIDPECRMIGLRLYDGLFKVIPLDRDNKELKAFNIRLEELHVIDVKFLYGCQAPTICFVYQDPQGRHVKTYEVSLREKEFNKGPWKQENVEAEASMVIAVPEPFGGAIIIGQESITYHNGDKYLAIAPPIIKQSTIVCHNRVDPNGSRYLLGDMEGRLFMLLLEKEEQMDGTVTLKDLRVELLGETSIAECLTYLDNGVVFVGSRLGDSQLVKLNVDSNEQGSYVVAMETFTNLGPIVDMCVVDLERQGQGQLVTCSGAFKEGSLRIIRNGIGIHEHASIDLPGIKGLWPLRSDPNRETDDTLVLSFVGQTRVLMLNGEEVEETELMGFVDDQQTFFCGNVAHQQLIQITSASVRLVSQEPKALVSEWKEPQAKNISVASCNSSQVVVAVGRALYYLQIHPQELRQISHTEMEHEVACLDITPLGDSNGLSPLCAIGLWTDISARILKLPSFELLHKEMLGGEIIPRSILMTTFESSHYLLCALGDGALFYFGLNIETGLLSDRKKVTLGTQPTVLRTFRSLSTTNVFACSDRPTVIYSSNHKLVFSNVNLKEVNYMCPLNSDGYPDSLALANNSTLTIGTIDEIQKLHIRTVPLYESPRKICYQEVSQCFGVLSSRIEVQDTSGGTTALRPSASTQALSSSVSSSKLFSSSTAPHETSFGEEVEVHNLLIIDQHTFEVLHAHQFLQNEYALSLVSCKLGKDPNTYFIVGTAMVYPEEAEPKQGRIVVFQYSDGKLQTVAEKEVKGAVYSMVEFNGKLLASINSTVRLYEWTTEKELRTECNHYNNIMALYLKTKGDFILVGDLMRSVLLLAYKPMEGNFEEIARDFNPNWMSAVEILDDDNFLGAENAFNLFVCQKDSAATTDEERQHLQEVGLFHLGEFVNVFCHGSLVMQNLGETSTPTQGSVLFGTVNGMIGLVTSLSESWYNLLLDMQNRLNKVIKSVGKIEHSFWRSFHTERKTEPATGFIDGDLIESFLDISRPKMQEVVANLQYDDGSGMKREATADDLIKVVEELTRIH

T2 sequence (P48729 whole entry): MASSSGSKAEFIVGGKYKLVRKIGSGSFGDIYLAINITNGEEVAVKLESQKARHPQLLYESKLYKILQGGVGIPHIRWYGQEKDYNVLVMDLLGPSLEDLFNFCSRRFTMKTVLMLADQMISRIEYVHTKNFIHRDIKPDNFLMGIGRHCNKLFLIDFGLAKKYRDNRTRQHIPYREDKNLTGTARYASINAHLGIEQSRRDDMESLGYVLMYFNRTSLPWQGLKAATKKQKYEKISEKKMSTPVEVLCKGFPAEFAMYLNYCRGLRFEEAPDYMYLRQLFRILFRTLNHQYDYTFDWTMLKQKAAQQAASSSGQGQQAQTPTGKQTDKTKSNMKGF
T2 sequence (Q96SW2 whole entry): as the sequence (Q96SW2 whole entry) above
T2 sequence (Q16531 whole entry partner): as the sequence (Q16531 whole entry partner) above
T3 sequence (Q13422 whole entry): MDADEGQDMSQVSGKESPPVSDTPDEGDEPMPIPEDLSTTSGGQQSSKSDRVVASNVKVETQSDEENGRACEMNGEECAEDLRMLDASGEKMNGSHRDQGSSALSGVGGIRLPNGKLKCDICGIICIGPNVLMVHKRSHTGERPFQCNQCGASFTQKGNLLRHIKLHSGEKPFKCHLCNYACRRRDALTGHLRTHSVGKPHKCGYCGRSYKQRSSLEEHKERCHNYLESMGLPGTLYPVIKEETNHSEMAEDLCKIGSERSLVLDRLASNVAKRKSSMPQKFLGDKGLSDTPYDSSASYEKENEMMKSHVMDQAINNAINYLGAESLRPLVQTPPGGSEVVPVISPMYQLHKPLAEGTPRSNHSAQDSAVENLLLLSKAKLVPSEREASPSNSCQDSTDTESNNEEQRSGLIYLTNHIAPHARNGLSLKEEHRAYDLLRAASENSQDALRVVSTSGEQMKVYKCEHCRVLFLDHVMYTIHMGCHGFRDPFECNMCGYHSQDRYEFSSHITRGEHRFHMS
T3 sequence (Q96SW2 whole entry): as the sequence (Q96SW2 whole entry) above
T3 sequence (Q16531 whole entry partner): as the sequence (Q16531 whole entry partner) above
T1 sequence (Q9UKS7 whole entry): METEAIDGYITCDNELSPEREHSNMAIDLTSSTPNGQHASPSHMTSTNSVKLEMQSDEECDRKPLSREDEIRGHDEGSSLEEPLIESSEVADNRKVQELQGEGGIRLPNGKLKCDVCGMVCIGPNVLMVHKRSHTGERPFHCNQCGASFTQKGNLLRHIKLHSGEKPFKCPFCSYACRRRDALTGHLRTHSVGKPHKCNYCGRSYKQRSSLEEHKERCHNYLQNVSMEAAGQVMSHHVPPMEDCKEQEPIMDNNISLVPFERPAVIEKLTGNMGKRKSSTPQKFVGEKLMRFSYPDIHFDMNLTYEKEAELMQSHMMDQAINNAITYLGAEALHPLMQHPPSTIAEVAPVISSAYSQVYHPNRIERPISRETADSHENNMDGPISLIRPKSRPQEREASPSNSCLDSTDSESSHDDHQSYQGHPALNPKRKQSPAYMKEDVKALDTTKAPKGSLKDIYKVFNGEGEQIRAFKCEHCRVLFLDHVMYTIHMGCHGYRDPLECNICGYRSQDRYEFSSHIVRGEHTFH
T1 sequence (Q96SW2 whole entry): as the sequence (Q96SW2 whole entry) above
T1 sequence (Q16531 whole entry partner): as the sequence (Q16531 whole entry partner) above

Structure (SMILES) | IKZF2% degradation at 100 nM (IKZF2) [%] | IKZF2% degradation at 1 μM (IKZF2) [%] | CK1α % degradation at 100 nM (CK1α) [%] | CK1α % degradation at 1 μM (CK1α) [%] | IKZF1% degradation at 100 nM (IKZF1) [%] | IKZF1% degradation at 1 μM (IKZF1) [%] | GSPT1% degradation at 100 nM (GSPT1) [%] | GSPT1% degradation at 1 μM (GSPT1) [%]
O=C1CCC(N2Cc3cc(NC(=O)c4cccc(C(=O)c5ccccc5)c4)ccc3C2=O)C(=O)N1 (stereo not shown) [DEG-51, 3-benzoyl-N-(2-(2,6-dioxopiperidin-3-yl)-1-oxoisoindolin-5-yl)benzamide] | 82.6 ± 0.3 | 93.9 ± 0 | 63.7 ± 1.1 | 69.8 ± 0.5 | 59.5 ± 0.2 | 84 ± 0.2 | 9 ± 1.6 | 13.7 ± 0.3
O=C1CCC(N2Cc3cc(NC(=O)c4ccc5c(c4)OCCO5)ccc3C2=O)C(=O)N1 (stereo not shown) [DEG-53, N-(2-(2,6-dioxopiperidin-3-yl)-1-oxoisoindolin-5-yl)-2,3-dihydrobenzo[b]dioxine-6-carboxamide] | 38.5 ± 0.2 | 76.5 ± 0.7 | 36.2 ± 4.5 | 55.4 ± 3.9 | 9.3 ± 0.8 | 8.8 ± 1.6 | 5 ± 1.4 | 2.4 ± 0.9
O=C1CCC(N2Cc3cc(NC(=O)c4ccc5c(c4)OCO5)ccc3C2=O)C(=O)N1 (stereo not shown) [DEG-54, N-(2-(2,6-dioxopiperidin-3-yl)-1-oxoisoindolin-5-yl)benzo[d][1,3]dioxole-5-carboxamide] | 49.2 ± 0.2 | 84.1 ± 0.3 | 33.5 ± 10 | 57.6 ± 3.5 | 7.4 ± 0.8 | 9.7 ± 1.4 | 5.2 ± 1.5 | 3.3 ± 1.7
COc1ccc(CCC(=O)Nc2ccc3c(c2)CN(C2CCC(=O)NC2=O)C3=O)cc1 (stereo not shown) [DEG-57] | 76.2 ± 0.4 | 88.6 ± 0.2 | 40.3 ± 11.2 | 54.1 ± 2.1 | 81.9 ± 0.7 | 92.5 ± 0.2 | 11.7 ± 1.3 | 9.9 ± 0.8
COc1ccc2c(CC(=O)Nc3ccc4c(c3)CN(C3CCC(=O)NC3=O)C4=O)cccc2c1 (stereo not shown) [DEG-58, N-(2-(2,6-dioxopipperidin-3-yl)-1-oxoisoindolin-5-yl)-2-(6-methoxynaphthalen-1-yl)acetamide] | 93 ± 0.2 | 95.8 ± 0.1 | 63.4 ± 0.6 | 57 ± 0.1 | 97.7 ± 0.1 | 98.4 ± 0 | 29 ± 1.9 | 41.9 ± 0.8
COc1ccc(/C=C/C(=O)Nc2ccc3c(c2)CN(C2CCC(=O)NC2=O)C3=O)cc1 (stereo not shown) [DEG-60, (E)-N-(2-(2,6-dioxopiperidin-3-yl)-1-oxoisoindolin-5-yl)-3-(4-methoxyphenyl)acrylamide] | 74.7 ± 0.3 | 89.5 ± 0.2 | 64.3 ± 1.3 | 68.3 ± 1.2 | 17.6 ± 0.8 | 40.3 ± 0.9 | 11.6 ± 1.4 | 16.5 ± 2
O=C1CCC(N2Cc3cc(NC(=O)c4ccc5occc5c4)ccc3C2=O)C(=O)N1 (stereo not shown) [DEG-62, N-(2-(2,6-dioxopiperidin-3-yl)-1-oxoisoindolin-5-yl)benzofuran-5-carboxamide] | 61.1 ± 0.5 | 90.6 ± 0.1 | 50.2 ± 1.7 | 64.7 ± 0.4 | 6.4 ± 0.3 | 22.3 ± 0.5 | 2 ± 2.1 | 4.4 ± 1.9
O=C1CCC(N2Cc3cc(NC(=O)C4=COc5ccccc5O4)ccc3C2=O)C(=O)N1 (stereo not shown) [DEG-63, N-(2-(2,6-dioxopiperidin-3-yl)-1-oxoisoindolin-5-yl)benzo[b][1,4]dioxine-2-carboxamide] | 70.8 ± 0.6 | 90.7 ± 0.2 | 46.4 ± 1.4 | 60.3 ± 1.2 | 13.4 ± 0.7 | 35.2 ± 0.6 | −0.1 ± 1.2 | 1.2 ± 0.3
